System: post-synaptic Dopamine (D.A.) receptors
Experiment: Inhibition of apomorphine induced climbing in the mouse
Type: in vivo
Details: male CDI mice, p.o., 1/2 hour post dosing, apomorphine 1 mg/kg s.c.; for ED50 (dose for 50% inhibition of apomorphine-induced climbing): 30 min; for ED50: Mus musculus, po, 0.5 h, read-out: ED50 (dose for 50% inhibition of apomorphine-induced climbing)
Description: Inhibition of apomorphine induced climbing in the mouse
The test is based on that described by Protais, P., Constantin, J. and Schwartz J. C.
When mice are given a dose of 1 mg/kg apomorphine and then placed in an enclosed environment, such as an inverted wire cage, they are seen to climb around the walls. This behavioural phenomenon is thought to be a consequence of the stimulation of post-synaptic Dopamine (D.A.) receptors in the nucleus accumbens. Inhibition of apomorphine induced climbing is therefore indicative of post-synaptic D.A. receptor blockade in the accumbens.
Groups of 10 male CDI mice, weighing 25-30 g were pretreated orally with either graded doses of the test compound or vehicle, at appropriate time intervals before the subcutaneous administration of a sub-maximal dose of apomorphine (1 mg/kg). Immediately after the apomorphine injection the mice were placed in wire `climbing cages` and each animal was scored for climbing behavour at 10 and 20 minutes post apomorphine as follows:
Four paws on cage floor=0
The total score was calculated for each group of mice and expressed as a percentage inhibition of climbing.
Total score for apomorphine control

Compound	ED50 (dose for 50% inhibition of apomorphine-induced climbing)	ED50
COc1cc(N)c(Cl)cc1C(=O)NC1CCN2CC(C)(c3ccccc3)CCC12 (racemic) [2 (c), (±) 4-Amino-5-chloro-2-methoxy-N-[7'β-[3'-methyl-3'-phenyl-1'-aza-5'αH-bicyclo[4,3,0]nonyl)]benzamide]	0.48 mg/kg p.o.	
COc1cc(N)c(Cl)cc1C(=O)N[C@H]1CCN2C[C@@H](c3ccccc3)C[C@H]2C1 (relative stereo) [2 (a), (±) 4-Amino-5-chloro-2-methoxy-N-[7'β-(3'β-phenyl-1'-aza-5'αH-bicyclo[4,3,0]nonyl)]benzamide]		0.235 mg/kg
COc1cc(N)c(Cl)cc1C(=O)N[C@H]1CCN2C[C@@H](c3ccc(F)cc3)C[C@H]2C1 (relative stereo) [2 (b), (±) 4-Amino-5-chloro-2-methoxy-N-[7'β-(3'β-p-fluorophenyl-1'-aza-5'αH-bicyclo[4,3,0]nonyl)]benzamide]		0.195 mg/kg
(±) 4-Amino-5-chloro-2-methoxy-N-(7'β-[3'-o-fluorophenyl-1'-aza-5'αH-bicyclo[4,3,0]nonyl)]benzamide [2 (d)]	0.52 mg/kg p.o.	

— patent US4559346A, “Certain N-octahydro-indolizinebenzamides and their use in treating psychosis, cardiac arrhythmia and hypertension” (Beecham Group p.l.c., priority 1982, dated 1985)
